According to patent EP0226973A2, “4-Bis(2'-hydroxyethyl)amino-1-(3'-hydroxypropyl)amino-2-nitro-benzene, process for its preparation and means for dyeing hair” (Wella Aktiengesellschaft, priority 1985, dated 1987):
In brackets after ≈: the same amount, converted by molar mass. Where two headings read alike, the source gives them in different places.

How the values were obtained:
Solubility in water = format: physicochemical; details: read-out: Löslichkeit in Wasser
Ames mutagenicity test = format: cell-based; details: Mutagenitätstest nach Ames
Human-Lymphozyten = test: Human lymphocyte mutagenicity test; format: cell-based; details: Human-Lymphozytentest
[1] = Toxicological properties (general statement)

| solubility (Solubility in water) [µg/mL] | solubility (Solubility in water; ohne Zusatz von Lösungsvermittlern) [µg/mL] | Structure (SMILES) | mutagene Wirkung (Ames mutagenicity test) | mutagene Wirkung (Human-Lymphozyten) | toxikologische Eigenschaften [1] |
| --- | --- | --- | --- | --- | --- |
| ~5000 (≈ 19.6 mM) |  | CNc1ccc(N(CCO)CCO)cc1[N+](=O)[O-] [Farbstoff (V), 4-Bis(2′-hydroxyethyl)amino-l-methylamino-2-nitro-benzols] | im Gegensatz zu Farbstoff (V) | im Gegensatz zu Farbstoff (V) | sehr unbefriedigend |
| ~20000 (≈ 66.8 mM) |  | O=[N+]([O-])c1cc(N(CCO)CCO)ccc1NCCCO [Farbstoff (I), 4-Bis(2′-hydroxyethyl)amino-l-(3′-hydroxypropyl)amino-2-nitro-benzol] | keine mutagene Wirkung | keine mutagene Wirkung |  |
|  | < 1500 | CCNc1ccc(N(CCO)CCO)cc1[N+](=O)[O-] [Farbstoff (III), 4-Bis(2′-hydroxyethyl)amino-l-ethylamino-2-nitro-benzol] |  |  |  |
